Data taken from patent US20090286827A1, “NOVEL BI-ARYL AMINES” (priority 2006, published 2009).

target: T1, mGluR5 (Homo sapiens, UniProt P41594); experiment: inhibition of the glutamate induced elevation of intracellular Ca2+-concentration; type: cell-based; details: inhibition of glutamate induced elevation of intracellular Ca2+ at a concentration of 10 μM
T1 construct: expressed in transfected cells
Excerpt: This can be determined in vitro for example at recombinant human metabotropic glutamate receptors, especially PLC-coupled subtypes thereof such as mGluR5, using different procedures like, for example, measurement of the inhibition of the agonist induced elevation of intracellular Ca^2+ concentration in accordance with L. P. Daggett et al., Neuropharm. Vol. 34, pages 871-886 (1995), P. J. Flor et al., J. Neurochem. Vol. 67, pages 58-63 (1996) or by determination to what extent the agonist induced elevation of the inositol phosphate turnover is inhibited as described by T. Knoepfel et al., Eur. J. Pharmacol. Vol. 288, pages 389-392 (1995), L. P. Daggett et al., Neuropharm. Vol. 34, pages 871-886 (1995) and references cited therein. Isolation and expression of human mGluR subtypes are described in U.S. Pat. No. 5,521,297. Selected agents of the invention show IC50 values for the inhibition of the agonist (e.g. glutamate or quisqualate) induced elevation of intracellular Ca2+ concentration or the agonist (e.g. glutamate or quisqualate) induced inositol phosphate turnover, measured in recombinant cells expressing hmGluR5a of about 1 nM to about 50 μM.
Activity of compounds of the present invention was examined by measurement of the inhibition of the glutamate induced elevation of intracellular Ca^2+-concentration following similar methods than those described in L. P. Daggett et al., Neuropharm. Vol. 34, pages 871-886 (1995), P. J. Flor et al., J. Neurochem. Vol. 67, pages 58-63 (1996).
The table below represents percentages of inhibition of the glutamate induced elevation of intracellular Ca^2+-concentration at a concentration of 10 μM.

T1 sequence (P41594 21-1180 isoform P41594-2 limits assumed): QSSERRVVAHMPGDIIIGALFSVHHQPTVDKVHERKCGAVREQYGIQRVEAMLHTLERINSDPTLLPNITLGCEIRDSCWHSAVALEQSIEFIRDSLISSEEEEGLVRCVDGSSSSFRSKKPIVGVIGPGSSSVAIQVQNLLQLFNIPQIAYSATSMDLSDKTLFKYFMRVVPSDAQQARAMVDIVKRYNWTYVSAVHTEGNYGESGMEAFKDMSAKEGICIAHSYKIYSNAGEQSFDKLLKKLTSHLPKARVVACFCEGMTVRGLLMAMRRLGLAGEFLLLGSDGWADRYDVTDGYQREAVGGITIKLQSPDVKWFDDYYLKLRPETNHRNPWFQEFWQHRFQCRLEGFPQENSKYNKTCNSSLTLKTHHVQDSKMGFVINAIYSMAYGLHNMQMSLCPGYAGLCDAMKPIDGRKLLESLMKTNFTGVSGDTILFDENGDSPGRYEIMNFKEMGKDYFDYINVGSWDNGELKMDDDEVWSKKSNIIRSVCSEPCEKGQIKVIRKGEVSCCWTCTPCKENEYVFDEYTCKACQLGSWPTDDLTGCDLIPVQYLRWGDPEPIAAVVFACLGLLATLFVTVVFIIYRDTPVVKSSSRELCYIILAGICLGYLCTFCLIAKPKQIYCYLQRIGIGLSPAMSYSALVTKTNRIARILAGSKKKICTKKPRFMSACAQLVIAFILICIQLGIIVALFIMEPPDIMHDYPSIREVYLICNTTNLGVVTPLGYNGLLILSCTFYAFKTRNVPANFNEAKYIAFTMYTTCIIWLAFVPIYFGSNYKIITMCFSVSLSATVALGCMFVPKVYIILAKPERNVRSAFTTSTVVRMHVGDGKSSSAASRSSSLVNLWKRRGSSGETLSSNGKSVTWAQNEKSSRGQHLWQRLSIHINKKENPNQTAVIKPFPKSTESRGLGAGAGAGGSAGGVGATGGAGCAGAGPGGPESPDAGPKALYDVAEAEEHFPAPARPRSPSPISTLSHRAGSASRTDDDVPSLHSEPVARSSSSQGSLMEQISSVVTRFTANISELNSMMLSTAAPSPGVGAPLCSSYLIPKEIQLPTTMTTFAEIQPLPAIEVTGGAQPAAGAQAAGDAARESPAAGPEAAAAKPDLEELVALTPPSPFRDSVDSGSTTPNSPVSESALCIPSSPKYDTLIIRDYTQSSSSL

| SMILES | mGluR5 Activity inh. at 10 μM [%] |
| --- | --- |
| Clc1ccc(Nc2ccc(-c3nccn3C3CCCCC3)cn2)cc1 [Compound 7, (4-Chloro-phenyl)-[5-(1-yclohexyl-1H-imidazol-2-yl)-pyridin-2-yl]-amine] | 27 |

same assay, conditions: inhibition of glutamate induced elevation of intracellular Ca2+ at a concentration of 10 μM; read-out: mGluR5 Activity inh. at 10 μM [%]

| SMILES | inhibition at 10 µM [%] |
| --- | --- |
| CCn1ccnc1-c1ccc(Nc2ccc(Cl)cc2)nc1 [Compound 1, (4-Chloro-phenyl)-[5-(1-ethyl-1H-imidazol-2-yl)-pyridin-2-yl]-amine] | 94 |
| Cn1ccnc1-c1ccc(Nc2ccc(Cl)cc2)nc1 [Compound 2, (4-Chloro-phenyl)-[5-(1-methyl-1H-imidazol-2-yl)-pyridin-2-yl]-amine] | 81 |
| CCCn1ccnc1-c1ccc(Nc2ccc(Cl)cc2)nc1 [Compound 3, (4-Chloro-phenyl)-[5-(1-propyl-1H-imidazol-2-yl)-pyridin-2-yl]-amine] | 96 |
| CC(C)n1ccnc1-c1ccc(Nc2ccc(Cl)cc2)nc1 [Compound 4, (4-Chloro-phenyl)-[5-(1-isopropyl-1H-imidazol-2-yl)-pyridin-2-yl]-amine] | 93 |
| CC(C)Cn1ccnc1-c1ccc(Nc2ccc(Cl)cc2)nc1 [Compound 5, (4-Chloro-phenyl)-[5-(1-isobutyl-1H-imidazol-2-yl)-pyridin-2-yl]-amine] | 95 |
| Clc1ccc(Nc2ccc(-c3nccn3CC3CC3)cn2)cc1 [Compound 6, (4-Chloro-phenyl)-[5-(1-cyclopropylmethyl-1H-imidazol-2-yl)-pyridin-2-yl]-amine] | 96 |
| Clc1ccc(Nc2ccc(-c3nccn3Cc3ccccc3)cn2)cc1 [Compound 8, [5-(1-Benzyl-1H-imidazol-2-yl)-pyridin-2-yl]-(4-chloro-phenyl)-amine] | 36 |
| Clc1ccc(Nc2ccc(-c3nccn3-c3ccccc3)cn2)cc1 [Compound 9, (4-Chloro-phenyl)-[5-(1-phenyl-1H-imidazol-2-yl)-pyridin-2-yl]-amine] | 63 |
| CC(C)n1cncc1-c1ccc(Nc2ccc(Cl)cc2)nc1 [Compound 10, (4-Chloro-phenyl)-[5-(3-isopropyl-3H-imidazol-4-yl)-pyridin-2-yl]-amine] | 73 |
| CC(C)n1cnc(-c2ccc(Nc3ccc(Cl)cc3)nc2)c1 [Compound 11, (4-Chloro-phenyl)-[5-(1-isopropyl-1H-imidazol-4-yl)-pyridin-2-yl]-amine] | 56 |
| CC(C)n1cnnc1-c1ccc(Nc2ccc(Cl)cc2)nc1 [Compound 12, (4-Chloro-phenyl)-[5-(4-isopropyl-4H-[1,2,4]triazol-3-yl)-pyridin-2-yl]-amine] | 40 |
| Clc1ccc(Nc2ccc(-c3nnc4n3CCCC4)cn2)cc1 [Compound 13, (4-Chloro-phenyl)-[5-(5,6,7,8-tetrahydro-[1,2,4]triazolo[4,3-a]pyridin-3-yl)-pyridin-2-yl]-amine] | 95 |
| Clc1ccc(Nc2ccc(-c3nnc4ccccn34)cn2)cc1 [Compound 14, (4-Chloro-phenyl)-(5-[1,2,4]triazolo[4,3-a]pyridin-3-yl-pyridin-2-yl)-amine] | 28 |
| CCn1ccnc1-c1cnc(Nc2ccc(Cl)cc2)c(Cl)c1 [Compound 15, [3-Chloro-5-(1-ethyl-1H-imidazol-2-yl)-pyridin-2-yl]-(4-chloro-phenyl)-amine] | 100 |
| Clc1ccc(Nc2ncc(-c3ncc4ccccn34)cc2Cl)cc1 [Compound 16, (3-Chloro-5-imidazo[1,5-a]pyridin-3-yl-pyridin-2-yl)-(4-chloro-phenyl)-amine] | 32 |
| Clc1ccc(Nc2ncc(-c3ncc4n3CCCC4)cc2Cl)cc1 [Compound 17, (4-Chloro-phenyl)-[3-chloro-5-(5,6,7,8-tetrahydro-imidazo[1,5-a]pyridin-3-yl)-pyridin-2-yl]-amine] | 95 |
| CCn1ccnc1-c1cnc(Nc2ccc(C)nc2)c(Cl)c1 [Compound 18, [3-Chloro-5-(1-ethyl-1H-imidazol-2-yl)-pyridin-2-yl]-(6-methyl-pyridin-3-yl)-amine] | 95 |
| CCCn1ccnc1-c1cnc(Nc2ccc(Cl)cc2)c(Cl)c1 [Compound 19, (4-Chloro-phenyl)-[3-chloro-5-(1-propyl-1H-imidazol-2-yl)-pyridin-2-yl]-amine] | 97 |
| CCn1c(-c2cnc(Nc3ccc(Cl)cc3)c(Cl)c2)nc(C)c1C [Compound 20, [3-Chloro-5-(1-ethyl-4,5-dimethyl-1H-imidazol-2-yl)-pyridin-2-yl]-(4-chloro-phenyl)-amine] | 92 |

| SMILES | inhibition at 10 µM [%] |
| --- | --- |
| Clc1ccc(Nc2ncc(-c3nnn[nH]3)cc2Cl)cc1 [Compound 21, (4-Chloro-phenyl)-[3-chloro-5-(1H-tetrazol-5-yl)-pyridin-2-yl]-amine] | 56 |
| CCCn1nnnc1-c1cnc(Nc2ccc(Cl)cc2)c(Cl)c1 [Compound 22, (4-Chloro-phenyl)-[3-chloro-5-(1-propyl-1H-tetrazol-5-yl)-pyridin-2-yl]-amine] | 49 |
| CC(C)Cn1nnnc1-c1cnc(Nc2ccc(Cl)cc2)c(Cl)c1 [Compound 23, [3-Chloro-5-(1-isobutyl-1H-tetrazol-5-yl)-pyridin-2-yl]-(4-chloro-phenyl)-amine] | 53 |
| Clc1ccc(Nc2ncc(-c3nnc4n3CCCC4)cc2Cl)cc1 [Compound 24, (4-Chloro-phenyl)-[3-chloro-5-(5,6,7,8-tetrahydro-[1,2,4]triazolo[4,3-a]pyridin-3-yl)-pyridin-2-yl]-amine] | 89 |
| Clc1ccc(Nc2ncc(-c3nnc4n3CCCCC4)cc2Cl)cc1 [Compound 25, (4-Chloro-phenyl)-[3-chloro-5-(6,7,8,9-tetrahydro-5H-[1,2,4]triazolo[4,3-a]azepin-3-yl)-pyridin-2-yl]-amine] | 93 |
| Clc1ccc(Nc2ncc(-c3nnc4n3CCCCCC4)cc2Cl)cc1 [Compound 26, [3-Chloro-5-(5,6,7,8,9,10-hexahydro-[1,2,4]triazolo[4,3-a]azocin-3-yl)-pyridin-2-yl]-(4-chloro-phenyl)-amine] | 98 |
| Clc1ccc(Nc2ncc(-c3nnc4n3CCCCCCC4)cc2Cl)cc1 [Compound 27, [3-Chloro-5-(6,7,8,9,10,11-hexahydro-5H-[1,2,4]triazolo[4,3-a]azonin-3-yl)-pyridin-2-yl]-(4-chloro-phenyl)-amine] | 100 |
| CCn1cccc1-c1cnc(Nc2ccc(Cl)cc2)c(Cl)c1 [Compound 28, [3-Chloro-5-(1-ethyl-1H-pyrrol-2-yl)-pyridin-2-yl]-(4-chloro-phenyl)-amine] | 31 |
| Cc1cc(-c2cnc(Nc3ccc(Cl)cc3)c(Cl)c2)n(C)n1 [Compound 29, [3-Chloro-5-(2,5-dimethyl-2H-pyrazol-3-yl)-pyridin-2-yl]-(4-chloro-phenyl)-amine] | 39 |
| Cc1cn(C)c(-c2cnc(Nc3ccc(Cl)cc3)c(Cl)c2)n1 [Compound 30, [3-Chloro-5-(1,4-dimethyl-1H-imidazol-2-yl)-pyridin-2-yl]-(4-chloro-phenyl)-amine] | 98 |
| Cc1cnc(-c2cnc(Nc3ccc(Cl)cc3)c(Cl)c2)n1C [Compound 31, [3-Chloro-5-(1,5-dimethyl-1H-imidazol-2-yl)-pyridin-2-yl]-(4-chloro-phenyl)-amine] | 48 |
| CCn1cc(C)nc1-c1cnc(Nc2ccc(Cl)cc2)c(Cl)c1 [Compound 32, [3-Chloro-5-(1-ethyl-4-methyl-1H-imidazol-2-yl)-pyridin-2-yl]-(4-chloro-phenyl)-amine] | 95 |
| CCCn1cc(C)nc1-c1cnc(Nc2ccc(Cl)cc2)c(Cl)c1 [Compound 33, [3-Chloro-5-(4-methyl-1-propyl-1H-imidazol-2-yl)-pyridin-2-yl]-(4-chloro-phenyl)-amine] | 100 |
| CCCn1cc(CC)nc1-c1cnc(Nc2ccc(Cl)cc2)c(Cl)c1 [Compound 34, [3-Chloro-5-(4-ethyl-1-propyl-1H-imidazol-2-yl)-pyridin-2-yl]-(4-chloro-phenyl)-amine] | 100 |
| CCCCn1cc(CC)nc1-c1cnc(Nc2ccc(Cl)cc2)c(Cl)c1 [Compound 35, [5-(1-Butyl-4-ethyl-1H-imidazol-2-yl)-3-chloro-pyridin-2-yl]-(4-chloro-phenyl)-amine] | 100 |
| CCc1cn(CC)c(-c2cnc(Nc3ccc(Cl)cc3)c(Cl)c2)n1 [Compound 36, [3-Chloro-5-(1,4-diethyl-1H-imidazol-2-yl)-pyridin-2-yl]-(4-chloro-phenyl)-amine] | 78 |
| CC(C)(C)c1cnc(-c2cnc(Nc3ccc(Cl)cc3)c(Cl)c2)[nH]1 [Compound 37, [5-(5-tert-Butyl-1H-imidazol-2-yl)-3-chloro-pyridin-2-yl]-(4-chloro-phenyl)-amine] | 95 |
| Cn1cc(C(C)(C)C)nc1-c1cnc(Nc2ccc(Cl)cc2)c(Cl)c1 [Compound 38, [5-(4-tert-Butyl-1-methyl-1H-imidazol-2-yl)-3-chloro-pyridin-2-yl]-(4-chloro-phenyl)-amine] | 86 |
